Measured values published in patent US20210276978A1, “INHIBITORS OF HISTONE DEACETYLASE” (Alkermes, Inc., priority 2018, published 2021).

Tests used:
HDAC2 = biological target: T1, HDAC2 (Homo sapiens, UniProt Q92769); assay: HDAC2 enzymatic inhibition assay in SH-SY5Y cell lysate with an exogenous substrate (HDAC-Glo 2); format: cell-based; settings: SH-SY5Y cells
T1 construct: host or cells: SH-SY5Y cells
Protocol: HDAC2 Enzymatic Inhibition Assay in SH-SY5Y Cell Lysate with an Exogenous Substrate
SH-SY5Y cells (Sigma) were cultured in Eagle's Modified Essential Medium supplemented with 10% fetal bovine serum and pen/strep. Twenty-four hours prior to compound dosing 20 uL of cells were plated in white 384 well plates at a density of 1,500 cells/well. Compounds were serially diluted in neat DMSO and then diluted 1:100 v/v into media without FBS and mixed. Media was removed from the plated cells and the diluted compounds in serum free media (1% v/v final DMSO) were added and incubated at 37.0 for five hours. Ten uL of HDAC-Glo 2 reagent with 0.1% Triton X-100 was then added, the plate was mixed and allowed to develop at room temperature for 100 minutes. Plates were then read with a Spectramax LMax luminometer employing a 0.4 s integration time. Dose response curves were constructed with normalized data where CI-994 at 100 uM was defined as 100% inhibition and DMSO alone as 0% inhibition.
In the table, “A” indicates a IC50 value of less than 0.5 μM; “B” a IC50 value from 0.5 μM to 1.0 μM; “C” a IC50 value of greater than 1.0 μM and less than or equal to 2.0 μM; and “D” indicates an IC50 value of greater than 2.0 μM. NT=Not Tested.

Full length Human HDAC2 = biological target: T2, Full length Human HDAC2 (Homo sapiens, UniProt Q92769); assay: HDAC2 enzymatic assay (deacetylation of FAM-labeled peptide substrate, microfluidic electrophoresis); format: biochemical; settings: 1 uM substrate peptide
T2 construct: Full length Human HDAC2 with; FLAG (C); host or cells: baculovirus expression system
T2 sequence (Q92769 whole entry): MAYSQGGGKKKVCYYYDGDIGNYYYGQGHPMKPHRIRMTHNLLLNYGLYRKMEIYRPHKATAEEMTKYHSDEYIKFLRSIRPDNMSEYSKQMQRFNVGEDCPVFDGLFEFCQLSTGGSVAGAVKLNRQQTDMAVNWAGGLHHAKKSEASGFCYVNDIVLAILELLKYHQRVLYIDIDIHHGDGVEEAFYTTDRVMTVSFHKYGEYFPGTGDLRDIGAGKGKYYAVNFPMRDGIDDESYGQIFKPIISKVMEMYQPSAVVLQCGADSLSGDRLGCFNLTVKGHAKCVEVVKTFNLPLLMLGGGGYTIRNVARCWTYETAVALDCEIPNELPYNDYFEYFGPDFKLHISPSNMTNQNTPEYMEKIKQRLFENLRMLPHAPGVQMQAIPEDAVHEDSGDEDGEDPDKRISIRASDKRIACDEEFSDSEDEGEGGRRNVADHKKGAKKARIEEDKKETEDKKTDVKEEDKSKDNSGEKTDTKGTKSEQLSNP
Protocol: (§1) HDAC2 and HDAC1 Enzymatic Assay (HDAC2 and HDAC1 IC50 Data)
(§2) The following describes an assay protocol for measuring the deacetylation of a peptide substrate by HDAC2 or HDAC1.
(§3) HDAC protein composition and respective substrate peptides are summarized below.
(§4) HDAC reactions are assembled in 384 well plates (Greiner) in a total volume of 20 µL as following:
(§5) HDAC proteins are pre-diluted in the assay buffer comprising: 100 mM HEPES, pH 7.5, 0.1% BSA, 0.01% Triton X-100, 25 mM KCl and dispensed into 384 well plate (10 uL per well).
(§6) Test compounds are serially pre-diluted in DMSO and added to the protein samples by acoustic dispensing (Labcyte Echo). Concentration of DMSO is equalized to 1% in all samples.
(§7) Control samples (0%-inhibition in the absence of inhibitor, DMSO only) and 100%-inhibition (in the absence of enzyme) are assembled in replicates of four and used to calculate the %-inhibition in the presence of compounds.
(§8) At this step compounds can be pre-incubated with enzyme if desired.
(§9) The reactions are initiated by addition of 10 uL of the FAM-labeled substrate peptide pre-diluted in the same assay buffer. Final concentration of substrate peptide is 1 uM (HDAC1-2). The reactions are allowed to proceed at room temperature. Following incubation, the reactions are quenched by addition of 50 µL of termination buffer (100 mM HEPES, pH7.5, 0.01% Triton X-100, 0.1% SDS). Terminated plates are analyzed on a microfluidic electrophoresis instrument (Caliper LabChip® 3000, Caliper Life Sciences/Perkin Elmer) which enables electrophoretic separation of de-acetylated product from acetylated substrate. A change in the relative intensity of the peptide substrate and product is the parameter measured. Activity in each test sample is determined as the product to sum ratio (PSR): P/(S+P), where P is the peak height of the product, and S is the peak height of the substrate. Percent inhibition (Pinh) is determined using the following equation: Pinh=(PSR0% inh−PSRcompound)/(PSR0% inh−PSR100% inh)*100, in which: PSRcompound is the product/sum ratio in the presence of compound, PSR0% inh is the product/sum ratio in the absence of compound and the PSR100% inh is the product/sum ratio in the absence of the enzyme. To determine IC50 of compounds (50%-inhibition) the %-inh data (Pinh versus compound concentration) are fit by a 4 parameter sigmoid dose-response model using XLfit software (IDBS).
(§10) In the table, “A” indicates a IC50 value of less than 0.5 “B” a IC50 value from 0.5 μM to 1.0 μM; “C” a IC50 value of greater than 1.0 μM and less than or equal to 2.0 μM; and “D” indicates an IC50 value of greater than 2.0 NT=Not Tested.

Full length Human HDAC1 = biological target: T3, Full length Human HDAC1 (Homo sapiens, UniProt Q13547); assay: HDAC1 enzymatic assay (deacetylation of FAM-labeled peptide substrate, microfluidic electrophoresis); format: biochemical; settings: 1 uM substrate peptide
T3 construct: Full length Human HDAC1 with; His (C); FLAG (C); host or cells: baculovirus expression system
T3 sequence (Q13547 whole entry): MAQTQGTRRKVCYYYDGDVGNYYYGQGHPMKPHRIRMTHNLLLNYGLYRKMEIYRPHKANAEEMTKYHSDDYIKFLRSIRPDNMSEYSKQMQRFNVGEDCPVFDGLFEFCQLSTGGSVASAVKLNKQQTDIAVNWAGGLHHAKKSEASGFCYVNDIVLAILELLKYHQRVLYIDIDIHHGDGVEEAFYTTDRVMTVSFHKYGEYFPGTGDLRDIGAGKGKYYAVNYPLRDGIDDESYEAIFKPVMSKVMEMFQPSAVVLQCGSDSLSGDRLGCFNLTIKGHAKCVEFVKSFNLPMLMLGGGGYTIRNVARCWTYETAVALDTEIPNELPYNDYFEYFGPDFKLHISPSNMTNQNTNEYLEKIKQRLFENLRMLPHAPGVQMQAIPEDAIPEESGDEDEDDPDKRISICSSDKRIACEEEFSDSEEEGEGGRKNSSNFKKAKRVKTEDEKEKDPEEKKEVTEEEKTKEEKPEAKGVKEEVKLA
Protocol: as §1, §2, §3, §4, §5, §6, §7, §8, §9, §10

[1] = HDAC-Glo 2, numeric values, Table 4
[2] = five hours incubation, HDAC-Glo 2 reagent, class symbols

T1 sequence (Q92769 whole entry): as the sequence (Q92769 whole entry) above

Structure (SMILES) | IC50 (HDAC2; [1]) | IC50 (Full length Human HDAC2) | IC50 (HDAC2; [2]) | IC50 (Full length Human HDAC1)
COCC1CCN(C(=O)Nc2nc(-c3ccc(F)cc3)ccc2N)C1 (stereo not shown) [Comparator E, reference compound] | > 100 µM |  |  | 
Nc1ccc(-c2ccc(F)s2)nc1NC(=O)N1CCC(c2ncc(F)cn2)C1 (single isomer, unassigned) [Compound 43] |  | > 2 µM | 1 to 2 µM | 1 to 2 µM
Nc1ccc(-c2ccc(F)cc2F)nc1NC(=O)N1CCC(c2ccccc2)C1 (stereo not shown) [Compound 4] |  | 1 to 2 µM | > 2 µM | 0.5 to 1 µM
Nc1ccc(-c2ccc(F)cc2F)nc1NC(=O)N1CCC(c2cccnn2)C1 (stereo not shown) [Compound 9] |  | 1 to 2 µM | 1 to 2 µM | 0.5 to 1 µM
Cc1ccnc(C2CCN(C(=O)Nc3nc(-c4ccc(F)cc4)ccc3N)C2)n1 (single isomer, unassigned) [Compound 51] |  | 0.5 to 1 µM | 1 to 2 µM | < 0.5 µM
Cc1cc(C2CCN(C(=O)Nc3nc(-c4ccc(F)cc4F)ccc3N)C2)nc(C)n1 (stereo not shown) [Compound 13] |  |  | > 2 µM | 
Nc1ccc(-c2ccc(F)cc2F)nc1NC(=O)N1CC[C@H](Oc2cccnc2)C1 [Compound 6] |  |  | > 2 µM | 
Nc1ccc(-c2ccc(F)cc2)nc1NC(=O)N1CCC(c2ncccn2)C1 (single isomer, unassigned) [Compound 19E2] |  | < 0.5 µM | 0.5 to 1 µM | < 0.5 µM
Nc1ccc(-c2ccc(F)cc2F)nc1NC(=O)N1CCC(F)(c2ncccn2)C1 (single isomer, unassigned) [Compound 29E2] |  | 1 to 2 µM | 1 to 2 µM | 1 to 2 µM
Nc1ccc(-c2ccc(F)cc2F)nc1NC(=O)N1CCC(Cn2ccnc2)C1 (stereo not shown) [Compound 34] |  |  | > 2 µM | 
Cc1cnc(C2CCN(C(=O)Nc3nc(-c4ccc(F)cc4F)ccc3N)C2)nc1 (stereo not shown) [Compound 33] |  |  | > 2 µM | 
Nc1ccc(-c2ccc(F)cc2)nc1NC(=O)N1CCC(C(F)(F)F)C1 (stereo not shown) [Comparator C, reference compound] | 6.36 µM |  |  | 
Nc1ccc(-c2ccc(F)cc2)nc1NC(=O)N1CCC(F)(F)C1 [Comparator B, reference compound] | 14 µM |  |  | 
Cc1ccnc(CC2CCN(C(=O)Nc3nc(-c4ccc(F)cc4F)ccc3N)C2)n1 (stereo not shown) [Compound 27] |  |  | 1 to 2 µM | 
Nc1ccc(-c2ccc(F)cc2F)nc1NC(=O)N1CCC(c2ccccn2)C1 (stereo not shown) [Compound 1] |  | 1 to 2 µM | > 2 µM | 0.5 to 1 µM
Nc1ccc(-c2ccc(F)cc2F)nc1NC(=O)N1CCC(Cc2ncccn2)C1 (single isomer, unassigned) [Compound 25E2] |  | > 2 µM | 0.5 to 1 µM | 1 to 2 µM
Nc1ccc(-c2ccc(F)cc2)nc1NC(=O)N1CCC(F)(c2ncc(F)cn2)C1 (single isomer, unassigned) [Compound 53] |  | 0.5 to 1 µM | 0.5 to 1 µM | < 0.5 µM
Nc1ccc(-c2ccc(F)cc2F)nc1NC(=O)N1CCC(F)(c2ncccn2)C1 (stereo not shown) [Compound 29] | 0.768 µM | 0.5 to 1 µM | 0.5 to 1 µM | < 0.5 µM
Nc1ccc(-c2ccc(F)cc2)nc1NC(=O)N1CCC(F)(c2ncccn2)C1 (single isomer, unassigned) [Compound 54] |  | 0.5 to 1 µM | 1 to 2 µM | 0.5 to 1 µM
Nc1ccc(-c2ccc(F)cc2F)nc1NC(=O)N1CCC(Cc2ncccn2)C1 (stereo not shown) [Compound 24] | 1.42 µM | 1 to 2 µM | 1 to 2 µM | 1 to 2 µM
Nc1ccc(-c2ccc(F)cc2F)nc1NC(=O)N1CCC(c2ccncc2)C1 (stereo not shown) [Compound 3] |  | > 2 µM | > 2 µM | > 2 µM
Nc1ccc(-c2ccccc2F)nc1NC(=O)N1CCC(c2ncccn2)C1 (stereo not shown) [Compound 48] |  | 1 to 2 µM | 1 to 2 µM | 0.5 to 1 µM
